Reference: article PMC11164105, “Exploring of N-phthalimide-linked 1,2,3-triazole analogues with promising -anti-SARS-CoV-2 activity: synthesis, biological screening, and molecular modelling studies” (Journal of Enzyme Inhibition and Medicinal Chemistry, 2024)
Where two headings read alike, the source gives them in different places.

What was measured:
SARS-CoV-2 Mpro = molecular target: T1, SARS-CoV-2 Mpro (Severe acute respiratory syndrome coronavirus 2, UniProt P0DTD1); experiment: SARS-CoV-2 Mpro inhibition assay (BPS Bioscience, FRET peptide); assay type: biochemical
T1 construct: purchased BPS Bioscience

[1] = system: SARS-CoV-2 isolate EGY/WAT-2 VACCERA; experiment: microbe, parasite or virus in culture; assay type: cell-based; details: for inhibition at 10 µM: Severe acute respiratory syndrome coronavirus 2, Vero C1008, 10 uM; for (API) Antiviral potency index: ratio of the inhibition % of the tested compound to that of Remdesivir at 10 μM, 1 = identical effect
SARS-CoV-2 [2] = system: SARS-CoV-2; set-up: method as in PMID 36986562; details: 10 µM, Vero 6 cells; cited from earlier work
main protease Mpro = system: main protease Mpro; set-up: method as in PMID 36986562; details: read-out: IC50 of main protease Mpro inhibition; cited from earlier work
COVID-19 = system: COVID-19; set-up: method as in PMID 34914868; details: adult patients with mild-to-moderate COVID-19, not hospitalized, phase-3; cited from earlier work
SARS-CoV-2 [3] = system: SARS-CoV-2; set-up: method as in PMID 34750163; details: ritonavir and Nirmatrelvir used in conjunction; cited from earlier work
Vero E6 cells = experiment: Cytotoxicity evaluation using MTT viability assay; details: Vero E6 cytotoxicity IC50 compared with the antiviral activity maximum concentration (10 mM printed in footnote, 10 uM in text)
[4] = in vitro enzyme assay, read-out: IC50 against SARS-CoV-2 Mpro
[5] = Severe acute respiratory syndrome coronavirus 2, Vero C1008, 1 uM, infected Vero E6 cells, read-out: % of inhibition of SARS CoV-2

Molecule	melting point	(API) Antiviral potency index [1]	other results
O=C(Cn1cc(COc2ccc(/C=N/N3C(=O)c4ccccc4C3=O)cc2)nn1)Nc1ccc(C(=O)O)cc1 [Compound 6a, (E)-4–(2-(4-((4-(((1,3-dioxoisoindolin-2-yl)imino)methyl)phenoxy)methyl)-1H-1,2,3-triazol-1-yl)acetamido)benzoic acid]	264 to 265 °C	0.98	IC50 (SARS-CoV-2 Mpro; [4]): 113 ± 5.75 µM; % of inhibition of SARS CoV-2 ([1]; 10 uM, infected Vero E6 cells): 94.96%; inhibition at 0.01 µM ([1]; Severe acute respiratory syndrome coronavirus 2, Vero C1008, 0.01 uM): ~40%; inhibition at 1 µM [1, 5]: 87.8%; inhibition at 10 µM ([1]; infected Vero E6 cells): 94%; EC50 ([1]; Severe acute respiratory syndrome coronavirus 2, Vero C1008, dose-response at five concentrations starting from 10 uM, read-out: EC50 of virus inhibition): 0.038 µM
O=C(Cn1cc(COc2ccc(/C=N/N3C(=O)c4ccccc4C3=O)cc2)nn1)Nc1ccccc1I [Compound 6b, (E)-2–(4-((4-(((1,3-dioxoisoindolin-2-yl)imino)methyl)phenoxy)methyl)-1H-1,2,3-triazol-1-yl)-N-(2-iodophenyl) acetamide]	213 to 214 °C	0.97	–
O=C(Cn1cc(COc2ccc(/C=N/N3C(=O)c4ccccc4C3=O)cc2)nn1)Nc1ccc(I)cc1F [Compound 6c, (E)-2–(4-((4-(((1,3-dioxoisoindolin-2-yl)imino)methyl)phenoxy)methyl)-1H-1,2,3-triazol-1-yl)-N-(2-fluoro-4-iodophenyl)acetamide]	228 to 229 °C	0.96	–
O=C(Cn1cc(COc2ccc(/C=N/N3C(=O)c4ccccc4C3=O)cc2)nn1)Nc1ccc([N+](=O)[O-])cc1 [Compound 6d, (E)-2–(4-((4-(((1,3-dioxoisoindolin-2-yl)imino)methyl)phenoxy)methyl)-1H-1,2,3-triazol-1-yl)-N-(4-nitrophenyl)acetamide]	242 to 243 °C	0.98	–
O=C(Cn1cc(COc2ccc(/C=N/N3C(=O)c4ccccc4C3=O)cc2)nn1)Nc1ccc(F)cc1 [Compound 6e, (E)-2–(4-((4-(((1,3-dioxoisoindolin-2-yl)imino)methyl)phenoxy)methyl)-1H-1,2,3-triazol-1-yl)-N-(4-fluorophenyl) acetamide]	219 to 220 °C	0.96	–
Cc1ccc(CNC(=O)Cn2cc(COc3ccc(/C=N/N4C(=O)c5ccccc5C4=O)cc3)nn2)cc1 [Compound 6f, (E)-2–(4-((4-(((1,3-dioxoisoindolin-2-yl)imino)methyl)phenoxy)methyl)-1H-1,2,3-triazol-1-yl)-N-(4-methylbenzyl) acetamide]	201 to 202 °C	0.92	–
O=C(Cn1cc(COc2ccc(/C=N/N3C(=O)c4ccccc4C3=O)cc2)nn1)NCc1ccc(F)cc1 [Compound 6g, (E)-2–(4-((4-(((1,3-dioxoisoindolin-2-yl)imino)methyl)phenoxy)methyl)-1H-1,2,3-triazol-1-yl)-N-(4-fluorobenzyl) acetamide]	–	0.97	IC50 (SARS-CoV-2 Mpro; [4]): 90.1 ± 4.59 µM; inhibition at 10 µM ([1]; infected Vero E6 cells): 94%
O=C(Cn1cc(COc2ccc(/C=N/N3C(=O)c4ccccc4C3=O)cc2)nn1)NCc1ccc(Cl)cc1 [Compound 6h, (E)-N-(4-chlorobenzyl)-2–(4-((4-(((1,3-dioxoisoindolin-2-yl)imino)methyl)phenoxy)methyl)-1H-1,2,3-triazol-1-yl)acetamide]	208 to 209 °C	0.95	–
O=C1c2ccccc2C(=O)N1/N=C/c1ccc(OCc2cn(-c3ccc(F)cc3)nn2)cc1 [Compound 8a, (E)-2-((4-((1–(4-fluorophenyl)-1H-1,2,3-triazol-4-yl)methoxy)benzylidene)amino) isoindoline-1,3-dione]	238 to 239 °C	0.96	–
O=C(O)c1ccc(-n2cc(COc3ccc(/C=N/N4C(=O)c5ccccc5C4=O)cc3)nn2)cc1 [Compound 8b, (E)-4–(4-((4-(((1,3-dioxoisoindolin-2-yl)imino)methyl)phenoxy)methyl)-1H-1,2,3-triazol-1-yl)benzoic acid]	287 to 288 °C	0.91	–
O=C1c2ccccc2C(=O)N1/N=C/c1ccc(OCc2cn(-c3ccccc3F)nn2)cc1 [Compound 8e, (E)-2-((4-((1–(2-fluorophenyl)-1H-1,2,3-triazol-4-yl)methoxy)benzylidene)amino)isoindoline-1,3-dione]	248 to 249 °C	0.98	inhibition at 1 µM [1, 5]: 83.6%
CCOC(=O)c1ccc(-n2cc(COc3ccc(/C=N/N4C(=O)c5ccccc5C4=O)cc3)nn2)cc1 [Compound 8f, ethyl (E)-4–(4-((4-(((1,3-dioxoisoindolin-2-yl)imino)methyl)phenoxy)methyl)-1H-1,2,3-triazol-1-yl)benzoate]	224 to 225 °C	0.91	–
O=C1c2ccccc2C(=O)N1/N=C/c1ccc(OCc2cn(-c3ccc(Cl)c(Cl)c3)nn2)cc1 [Compound 8g, (E)-2-((4-((1–(3,4-dichlorophenyl)-1H-1,2,3-triazol-4-yl)methoxy)benzylidene)amino)isoindoline-1,3-dione]	–	0.96	–
CC(=O)c1ccc(-n2cc(COc3ccc(/C=N/N4C(=O)c5ccccc5C4=O)cc3)nn2)cc1 [Compound 8h, (E)-2-((4-((1–(4-acetylphenyl)-1H-1,2,3-triazol-4-yl)methoxy)benzylidene)amino)isoindoline-1,3-dione]	275 to 276 °C	0.96	–
CC(=O)OC[C@@H]1O[C@H](n2cc(COc3ccc(/C=N/N4C(=O)c5ccccc5C4=O)cc3)nn2)[C@@H](OC(C)=O)[C@H](OC(C)=O)[C@H]1OC(C)=O [Compound 10a, (2S,3S,4R,5S,6S)-2-(acetoxymethyl)-6–(4-((4-((E)-((1,3-dioxoisoindolin-2-yl)imino)methyl)phenoxy)methyl)-1H-1,2,3-triazol-1-yl)tetrahydro-2H-pyran-3,4,5-triyl triacetate]	166 to 167 °C	0.92	IC50 (SARS-CoV-2 Mpro; [4]): 1090 ± 55.5 µM
CC(=O)OC[C@@H]1O[C@H](n2cc(COc3ccc(/C=N/N4C(=O)c5ccccc5C4=O)cc3)nn2)[C@@H](OC(C)=O)[C@H](OC(C)=O)[C@@H]1OC(C)=O [Compound 10b, (2S,3R,4R,5S,6S)-2-(acetoxymethyl)-6–(4-((4-((E)-((1,3-dioxoisoindolin-2-yl)imino)methyl)phenoxy)methyl)-1H-1,2,3-triazol-1-yl)tetrahydro-2H-pyran-3,4,5-triyl triacetate]	–	0.90	–
CC1=NN(c2ccc(Cl)cc2)C(=O)/C1=C\c1ccc(OCc2cn(CC(=O)Nc3ccc(C(=O)O)cc3)nn2)cc1 [Compound 11]	–	–	inhibition of SARS-CoV-2 growth (SARS-CoV-2 [2]): 63.39 ± 0.48%; IC50 (main protease Mpro): 3.16 ± 1.2 µM
Cc1cccc(C)c1OCC(=O)N[C@@H](Cc1ccccc1)[C@@H](O)C[C@H](Cc1ccccc1)NC(=O)[C@H](C(C)C)N1CCCNC1=O [Lopinavir, reference compound]	–	–	IC50 (SARS-CoV-2 Mpro): 149 ± 7.48 µM
CC(C)C(=O)OC[C@H]1O[C@@H](n2ccc(NO)nc2=O)[C@H](O)[C@@H]1O [Moldupiravir]	–	–	reduction of the risk of death or hospitalisation (COVID-19): 30%
CC(C)(C)[C@H](NC(=O)C(F)(F)F)C(=O)N1C[C@H]2[C@@H]([C@H]1C(=O)N[C@H](C#N)C[C@@H]1CCNC1=O)C2(C)C [Nirmatrelvir]	–	–	decrease in hospitalisation or mortality (SARS-CoV-2 [3]): 89%
CCC(CC)COC(=O)[C@H](C)N[P@](=O)(OC[C@H]1O[C@@](C#N)(c2ccc3c(N)ncnn23)[C@H](O)[C@@H]1O)Oc1ccccc1 [Remdesivir, reference compound]	–	–	inhibition at 1 µM ([1]; Severe acute respiratory syndrome coronavirus 2, Vero C1008, read-out: % of inhibition of SARS CoV-2): 92.7%; EC50 ([1]; Severe acute respiratory syndrome coronavirus 2, Vero C1008, read-out: EC50 of virus inhibition): 0.029 µM; CT/A Cytotoxicity/activity parameter (Vero E6 cells): 4.31
(E)-2-((4-((1–(3-fluoro-4-methylphenyl)-1H-1,2,3-triazol-4-yl)methoxy)benzylidene)amino) Isoindoline-1,3-dione [Compound 8d]	–	0.92	–
(E)-2-((4-((1–(4-nitrophenyl)-1H-1,2,3-triazol-4-yl)methoxy)benzylidene)amino)isoindoline-1,3-dione [Compound 8c]	–	0.96	CT/A Cytotoxicity/activity parameter (Vero E6 cells): 8.62
